This passage reports inhibition in vivo and Activity results from ChEMBL document CHEMBL1142913, “Novel synthesis of [1]-benzothiepino[5,4-b]pyridine-3-carbonitriles and their anti-inflammatory properties” (Bioorg Med Chem, 2007).

The subject of data set [1] is Rattus norvegicus. The experiment in a line: Antiinflammatory activity in Wistar Albino rat assessed as inhibition of carrageenan-induced paw oedema at 50 mg/kg, ip after 1 hr. In kind it is functional. To be noted: route intraperitoneal. In general terms: Carrageenan injected into the paw causes an acute inflammation.
Data set [2] concerns Rattus norvegicus. Description: Antiinflammatory activity in Wistar Albino rat assessed as inhibition of carrageenan-induced paw oedema at 50 mg/kg, ip after 2 hrs. It is filed as functional. To be noted: route intraperitoneal.
Data set [3] has as its system Rattus norvegicus. The experiment in a line: Antiinflammatory activity in Wistar Albino rat assessed as inhibition of carrageenan-induced paw oedema at 50 mg/kg, ip after 3 hrs. In kind it is functional. To be noted: route intraperitoneal.
In data set [4] the test system is Rattus norvegicus. Description: Antiinflammatory activity in Wistar Albino rat assessed as inhibition of carrageenan-induced paw oedema at 50 mg/kg, ip after 4 hrs. In kind it is functional. To be noted: route intraperitoneal.
In data set [5] the test system is Rattus norvegicus. The experiment in a line: Antiinflammatory activity against carrageenan-induced paw oedema in Wistar Albino rat assessed as mean swelling paw volume at 50 mg/kg, ip after 1 hr. It is filed as functional. To be noted: route intraperitoneal.
Data set [6] deals with Rattus norvegicus. The experiment in a line: Antiinflammatory activity against carrageenan-induced paw oedema in Wistar Albino rat assessed as mean swelling paw volume at 50 mg/kg, ip after 2 hrs. In kind it is functional. Particulars: route intraperitoneal.
Data set [7] deals with Rattus norvegicus. The experiment in a line: Antiinflammatory activity against carrageenan-induced paw oedema in Wistar Albino rat assessed as mean swelling paw volume at 50 mg/kg, ip after 3 hrs. To be noted: route intraperitoneal. In kind it is functional.
Data set [8] deals with Rattus norvegicus. The experiment in a line: Antiinflammatory activity against carrageenan-induced paw oedema in Wistar Albino rat assessed as mean swelling paw volume at 50 mg/kg, ip after 4 hrs. In kind it is functional. To be noted: route intraperitoneal.
Data set [9] concerns Mus musculus. The experiment in a line: Toxicity in intraperitoneally dosed Albino mouse after 24 hrs. In kind it is organism-based. To be noted: in vivo, ip.
In data set [10] the test system is Rattus norvegicus. The experiment in a line: Antiinflammatory activity in Wistar Albino rat assessed as inhibition of carrageenan-induced paw oedema at 5 mg/kg, ip after 1 hr. In kind it is functional. Particulars: route intraperitoneal.
The test system of data set [11] is Rattus norvegicus. The experiment in a line: Antiinflammatory activity in Wistar Albino rat assessed as inhibition of carrageenan-induced paw oedema at 5 mg/kg, ip after 2 hrs. It is filed as functional. To be noted: route intraperitoneal.
Data set [12] has as its system Rattus norvegicus. Description: Antiinflammatory activity in Wistar Albino rat assessed as inhibition of carrageenan-induced paw oedema at 5 mg/kg, ip after 3 hrs. In kind it is functional. To be noted: route intraperitoneal.
For data set [13], the system named is Rattus norvegicus. Description: Antiinflammatory activity in Wistar Albino rat assessed as inhibition of carrageenan-induced paw oedema at 5 mg/kg, ip after 4 hrs. Particulars: route intraperitoneal. It is filed as functional.
Data set [14] relates to Rattus norvegicus. Description: Antiinflammatory activity against carrageenan-induced paw oedema in Wistar Albino rat assessed as mean swelling paw volume at 5 mg/kg, ip after 1 hr. It is filed as functional. Particulars: route intraperitoneal.
The test system of data set [15] is Rattus norvegicus. Description: Antiinflammatory activity against carrageenan-induced paw oedema in Wistar Albino rat assessed as mean swelling paw volume at 5 mg/kg, ip after 2 hrs. It is filed as functional. Particulars: route intraperitoneal.
For data set [16], the system named is Rattus norvegicus. The experiment in a line: Antiinflammatory activity against carrageenan-induced paw oedema in Wistar Albino rat assessed as mean swelling paw volume at 5 mg/kg, ip after 3 hrs. It is filed as functional. Particulars: route intraperitoneal.
Data set [17] has as its system Rattus norvegicus. Description: Antiinflammatory activity against carrageenan-induced paw oedema in Wistar Albino rat assessed as mean swelling paw volume at 5 mg/kg, ip after 4 hrs. It is filed as functional. Particulars: route intraperitoneal.

Usually inhibition in vivo stands for the drop in the measured response relative to a control, in per cent. As to `C1CCNCC1.COc1ccc(-c2c(C#N)c(S)[nH]c(=S)c2C#N)cc1.O`, the inhibition in vivo at 50 mg/kg in [1] was 9.4%; in [2], 47%; in [3], 57%; in data set [4], 58.9%. Further, the Activity came out at 0.548 mL in data set [5], 0.594 mL in [6], 0.588 mL in data set [7] and 0.658 mL in data set [8].
Turning to `COc1nc2c(c(-c3ccc(Cl)cc3)c1C#N)CCSc1ccccc1-2`, the inhibition in vivo at 50 mg/kg was 63.1% in data set [1], 74.7% in [2], 79.8% in [3] and 75.3% in data set [4]. Further, the Activity in [5] amounted to 0.223 mL; in data set [6], 0.283 mL; in data set [7] it was 0.277 mL; in data set [8] it was 0.396 mL.
`COc1nc2c(c(-c3cccs3)c1C#N)CCSc1ccccc1-2`: the inhibition in vivo at 50 mg/kg was found to be 55.4% in data set [1], 60.1% in data set [2], 56.1% in [3] and 56.6% in data set [4]. The Activity in [5] worked out at 0.27 mL; in data set [6] it was 0.447 mL; in [7] it was 0.6 mL; in [8] it was 0.695 mL.
With `C1COCCN1.COc1ccc(-c2c(C#N)c(S)[nH]c(=S)c2C#N)cc1.O`, the inhibition in vivo at 50 mg/kg was 30.6% in data set [1], 55.5% in [2], 67.8% in data set [3] and 66.5% in [4]. In addition, the Activity stood at 0.42 mL in data set [5], 0.498 mL in data set [6], 0.44 mL in data set [7] and 0.536 mL in data set [8].
Consider `N#Cc1c(-c2ccc(Br)cc2)c2c([nH]c1=S)-c1ccccc1SCC2`, for which the inhibition in vivo at 50 mg/kg was found to be 38% in data set [1], 56.7% in data set [2], 63.8% in [3] and 69.7% in [4]. Further, the Activity in [5] is 0.375 mL; in data set [6], 0.485 mL; in data set [7], 0.495 mL; in data set [8], 0.485 mL.
Regarding `CCOc1nc2c(c(-c3ccc(OC)cc3)c1C#N)CCSc1ccccc1-2`, the inhibition in vivo at 50 mg/kg in data set [1] came to 62%; in data set [2] it was 79.5%; in data set [3] it was 90.6%; in [4] it was 87.5%. The Activity result in data set [9] is “Non-toxic”; in data set [5], 0.23 mL; in data set [6] it was 0.23 mL; in data set [7] it was 0.128 mL; in data set [8], 0.2 mL.
`CCOc1nc2c(c(-c3ccc(Cl)cc3)c1C#N)CCSc1ccccc1-2`: the inhibition in vivo at 50 mg/kg in data set [1] was determined as 81.3%; in data set [2], 87.7%; in data set [3], 88.5%; in data set [4], 86.8%. Also, the Activity entry was “Non-toxic” in data set [9]; 0.113 mL in [5]; 0.138 mL in data set [6]; 0.158 mL in data set [7]; 0.212 mL in [8].
Consider `COc1nc2c(c(-c3ccccc3)c1C#N)CCSc1ccccc1-2`, for which the inhibition in vivo at 50 mg/kg in data set [1] amounted to 54%; in data set [2] it was 61%; in [3], 59.2%; in data set [4] it was 80.9%. For the same compound, the Activity in [5] was 0.278 mL; in data set [6], 0.437 mL; in data set [7], 0.558 mL; in [8] it was 0.305 mL.
For the compound `COc1ccc2c(c1)c(CC(=O)O)c(C)n2C(=O)c1ccc(Cl)cc1` [INDOMETHACIN], the inhibition in vivo at 5 mg/kg in [10] worked out at 71.1%; in [11], 82.6%; in data set [12], 66.4%; in [13] it was 82.6%. Further, the Activity in data set [14] came to 0.175 mL; in [15] it was 0.195 mL; in [16], 0.46 mL; in data set [17] it was 0.278 mL.
`COc1ccc(-c2c(C#N)c(OC)nc3c2CCSc2ccccc2-3)cc1`: the inhibition in vivo at 50 mg/kg in data set [1] is 58.7%; in data set [2], 81.9%; in [3], 87%; in data set [4], 85.1%. The Activity result is “Non-toxic” in [9]; 0.25 mL in data set [5]; 0.203 mL in [6]; 0.178 mL in [7]; 0.238 mL in [8].
Take `COc1ccc(-c2c3c([nH]c(=S)c2C#N)-c2ccccc2SCC3)cc1`: the inhibition in vivo at 50 mg/kg in data set [1] is 54.5%; in [2], 68.3%; in data set [3], 63.5%; in data set [4] it was 56.3%. Further, the Activity in data set [5] stood at 0.275 mL; in data set [6] it was 0.355 mL; in data set [7], 0.5 mL; in [8], 0.7 mL.
Regarding `COc1nc2c(c(-c3ccco3)c1C#N)CCSc1ccccc1-2`, the inhibition in vivo at 50 mg/kg in [1] worked out at 79.5%; in [2] it was 51.1%; in data set [3], 58.2%; in [4], 68.3%. In addition, the Activity was found to be 0.124 mL in [5], 0.548 mL in [6], 0.572 mL in [7] and 0.508 mL in data set [8].
